Reference: the supplement of paper PMC9013687

How the values were obtained:
Danio rerio embryo [1] = assay: EC20 Yolk sac size_Increase; higher = less potent; settings: exposure time: 4 dpf
Protocol: (§1)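 Zebrafish embryos (UFZ-OBI strain) were exposed from 2 hpf for 48 h (2 dpf) or 96 h (4 dpf) at 28 °C; spontaneous tail coiling was scored at 25 hpf. Morphological features from automated image analysis (FishInspector), heart rate and locomotor response were fitted with drc models. Quantal endpoints were dichotomised at 2.5 SD from controls and fitted with a log-logistic model; heart rate, pigmentation and STC were normalised to the replicate control mean. Betamethasone was tested as betamethasone dipropionate, diflorasone as diflorasone diacetate.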

Danio rerio embryo [2] = assay: EC20 Body length_Decrease; higher = less potent
Protocol: as §1

Danio rerio embryo [3] = assay: EC20 Any effect; higher = less potent
Protocol: as §1

Danio rerio embryo [4] = assay: EC10 Pericard size_Increase; higher = less potent
Protocol: as §1

Danio rerio embryo [5] = assay: EC20 LMR dark; higher = less potent; settings: exposure time: 4 dpf
Protocol: as §1

Danio rerio embryo [6] = assay: EC50 Otolith-eye distance_Decrease; settings: exposure time: 4 dpf
Protocol: as §1

Danio rerio embryo [7] = assay: EC50 Curvature_Increase
Protocol: as §1

Danio rerio embryo [8] = assay: EC10 LMR dark; higher = less potent; settings: exposure time: 4 dpf
Protocol: as §1

Danio rerio embryo [9] = assay: EC20 Pericard size_Increase; higher = less potent
Protocol: as §1

Danio rerio embryo [10] = assay: EC10 Otolith-eye distance_Decrease; higher = less potent; settings: exposure time: 4 dpf
Protocol: as §1

Danio rerio embryo [11] = assay: EC10 Curvature_Increase; higher = less potent
Protocol: as §1

Danio rerio embryo [12] = tested on: Danio rerio embryo
Protocol: as §1

Danio rerio embryo [13] = assay: EC20 Eye-jaw distance_Decrease; higher = less potent; settings: exposure time: 4 dpf
Protocol: as §1

Danio rerio embryo [14] = assay: EC20 Bladder size_Decrease; higher = less potent; settings: exposure time: 4 dpf
Protocol: as §1

Danio rerio embryo [15] = assay: EC20 Otolith-eye distance_Decrease; higher = less potent; settings: exposure time: 4 dpf
Protocol: as §1

Danio rerio embryo [16] = assay: EC10 Bladder size_Decrease; higher = less potent; settings: exposure time: 4 dpf
Protocol: as §1

Danio rerio embryo [17] = assay: EC20 Curvature_Increase; higher = less potent
Protocol: as §1

Danio rerio embryo [18] = assay: EC50 Pericard size_Increase
Protocol: as §1

Danio rerio embryo [19] = assay: EC50 Body length_Decrease
Protocol: as §1

Danio rerio embryo [20] = assay: EC50 Yolk sac size_Increase; settings: exposure time: 4 dpf
Protocol: as §1

Danio rerio embryo [21] = assay: EC10 Body length_Decrease; higher = less potent
Protocol: as §1

Danio rerio embryo [22] = settings: exposure time: 4 dpf
Protocol: as §1

Danio rerio embryo [23] = assay: EC10 Any effect; higher = less potent
Protocol: as §1

Danio rerio embryo [24] = assay: spontaneous tail coiling frequency (coils/min/embryo); higher = more spontaneous movement; settings: 25 hpf
Protocol: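 Spontaneous tail coilings of zebrafish embryos exposed from 2 hpf were recorded at 24-25 hpf in 1-min videos and detected by a KNIME workflow from grey-value variance. Betamethasone was tested as the dipropionate, diflorasone as the diacetate.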

Danio rerio embryo [25] = assay: EC10 Yolk sac size_Increase; higher = less potent; settings: exposure time: 4 dpf
Protocol: as §1

Danio rerio embryo [26] = assay: EC50 Eye-jaw distance_Decrease; settings: exposure time: 4 dpf
Protocol: as §1

Danio rerio embryo [27] = assay: EC50 Bladder size_Decrease; settings: exposure time: 4 dpf
Protocol: as §1

Danio rerio embryo [28] = assay: EC10 Eye-jaw distance_Decrease; higher = less potent; settings: exposure time: 4 dpf
Protocol: as §1

Cc1ccc(-c2cc(C(F)(F)F)nn2-c2ccc(S(N)(=O)=O)cc2)cc1 [Celecoxib]
Settings | EC10 Bladder size Decrease [µM] | EC10 Eye-jaw distance Decrease [µM] | EC10 LMR dark [µM] | EC10 Otolith-eye distance Decrease [µM] | EC10 Yolk sac size Increase [µM] | EC20 Bladder size Decrease [µM] | EC20 Eye-jaw distance Decrease [µM] | EC20 LMR dark [µM] | EC20 Otolith-eye distance Decrease [µM] | EC20 Yolk sac size Increase [µM] | EC50 Bladder size Decrease [µM] | EC50 Eye-jaw distance Decrease [µM] | EC50 LMR dark [µM] | EC50 Otolith-eye distance Decrease [µM] | EC50 Yolk sac size Increase [µM]
Danio rerio embryo [1] | – | – | – | – | – | – | – | – | – | 11.4 | – | – | – | – | –
Danio rerio embryo [5] | – | – | – | – | – | – | – | 9.94 | – | – | – | – | – | – | –
Danio rerio embryo [6] | – | – | – | – | – | – | – | – | – | – | – | – | – | 21.4 | –
Danio rerio embryo [8] | – | – | 8.51 | – | – | – | – | – | – | – | – | – | – | – | –
Danio rerio embryo [10] | – | – | – | 14.6 | – | – | – | – | – | – | – | – | – | – | –
Danio rerio embryo [13] | – | – | – | – | – | – | 11.8 | – | – | – | – | – | – | – | –
Danio rerio embryo [14] | – | – | – | – | – | 8.23 | – | – | – | – | – | – | – | – | –
Danio rerio embryo [15] | – | – | – | – | – | – | – | – | 16.8 | – | – | – | – | – | –
Danio rerio embryo [16] | 7.91 | – | – | – | – | – | – | – | – | – | – | – | – | – | –
Danio rerio embryo [20] | – | – | – | – | – | – | – | – | – | – | – | – | – | – | 17.6
Danio rerio embryo [22] | – | – | – | – | – | – | – | – | – | – | – | – | 13 | – | –
Danio rerio embryo [25] | – | – | – | – | 8.88 | – | – | – | – | – | – | – | – | – | –
Danio rerio embryo [26] | – | – | – | – | – | – | – | – | – | – | – | 15.9 | – | – | –
Danio rerio embryo [27] | – | – | – | – | – | – | – | – | – | – | 8.8 | – | – | – | –
Danio rerio embryo [28] | – | 9.89 | – | – | – | – | – | – | – | – | – | – | – | – | –

Settings | EC10 Any effect [µM] | EC10 Body length Decrease [µM] | EC10 Curvature Increase [µM] | EC10 Pericard size Increase [µM] | EC20 Any effect [µM] | EC20 Body length Decrease [µM] | EC20 Curvature Increase [µM] | EC20 Pericard size Increase [µM] | EC50 Any effect [µM] | EC50 Body length Decrease [µM] | EC50 Curvature Increase [µM] | EC50 Pericard size Increase [µM] | EC50 STC bell shape [µM] | spontaneous tail coiling frequency
Danio rerio embryo [2], exposure time: 2 dpf | – | – | – | – | – | 21.9 | – | – | – | – | – | – | – | –
Danio rerio embryo [2], exposure time: 4 dpf | – | – | – | – | – | 10.2 | – | – | – | – | – | – | – | –
Danio rerio embryo [3], exposure time: 2 dpf | – | – | – | – | 7.05 | – | – | – | – | – | – | – | – | –
Danio rerio embryo [3], exposure time: 4 dpf | – | – | – | – | 2.94 | – | – | – | – | – | – | – | – | –
Danio rerio embryo [4], exposure time: 2 dpf | – | – | – | 4.26 | – | – | – | – | – | – | – | – | – | –
Danio rerio embryo [4], exposure time: 4 dpf | – | – | – | 7.87 | – | – | – | – | – | – | – | – | – | –
Danio rerio embryo [7], exposure time: 2 dpf | – | – | – | – | – | – | – | – | – | – | 31.6 | – | – | –
Danio rerio embryo [7], exposure time: 4 dpf | – | – | – | – | – | – | – | – | – | – | 21.1 | – | – | –
Danio rerio embryo [9], exposure time: 2 dpf | – | – | – | – | – | – | – | 6.48 | – | – | – | – | – | –
Danio rerio embryo [9], exposure time: 4 dpf | – | – | – | – | – | – | – | 9.76 | – | – | – | – | – | –
Danio rerio embryo [11], exposure time: 2 dpf | – | – | 29.8 | – | – | – | – | – | – | – | – | – | – | –
Danio rerio embryo [11], exposure time: 4 dpf | – | – | 12.3 | – | – | – | – | – | – | – | – | – | – | –
Danio rerio embryo [12], exposure time: 2 dpf | – | – | – | – | – | – | – | – | 13.9 | – | – | – | – | –
Danio rerio embryo [12], exposure time: 4 dpf | – | – | – | – | – | – | – | – | 8.13 | – | – | – | – | –
Danio rerio embryo [12], exposure time: 25 h | – | – | – | – | – | – | – | – | – | – | – | – | 32.2 | –
Danio rerio embryo [17], exposure time: 2 dpf | – | – | – | – | – | – | 30.5 | – | – | – | – | – | – | –
Danio rerio embryo [17], exposure time: 4 dpf | – | – | – | – | – | – | 15 | – | – | – | – | – | – | –
Danio rerio embryo [18], exposure time: 2 dpf | – | – | – | – | – | – | – | – | – | – | – | 13.3 | – | –
Danio rerio embryo [18], exposure time: 4 dpf | – | – | – | – | – | – | – | – | – | – | – | 14.1 | – | –
Danio rerio embryo [19], exposure time: 2 dpf | – | – | – | – | – | – | – | – | – | 25.2 | – | – | – | –
Danio rerio embryo [19], exposure time: 4 dpf | – | – | – | – | – | – | – | – | – | 13.6 | – | – | – | –
Danio rerio embryo [21], exposure time: 2 dpf | – | 20.1 | – | – | – | – | – | – | – | – | – | – | – | –
Danio rerio embryo [21], exposure time: 4 dpf | – | 8.57 | – | – | – | – | – | – | – | – | – | – | – | –
Danio rerio embryo [23], exposure time: 2 dpf | 4.74 | – | – | – | – | – | – | – | – | – | – | – | – | –
Danio rerio embryo [23], exposure time: 4 dpf | 1.62 | – | – | – | – | – | – | – | – | – | – | – | – | –
Danio rerio embryo [24], 5 µM | – | – | – | – | – | – | – | – | – | – | – | – | – | 2.65
Danio rerio embryo [24], 8.3 µM | – | – | – | – | – | – | – | – | – | – | – | – | – | 2.21
Danio rerio embryo [24], 10 µM | – | – | – | – | – | – | – | – | – | – | – | – | – | 2.87
Danio rerio embryo [24], 16.5 µM | – | – | – | – | – | – | – | – | – | – | – | – | – | 2.73
Danio rerio embryo [24], 17.5 µM | – | – | – | – | – | – | – | – | – | – | – | – | – | 1.93
Danio rerio embryo [24], 24.8 µM | – | – | – | – | – | – | – | – | – | – | – | – | – | 2.06
Danio rerio embryo [24], 25 µM | – | – | – | – | – | – | – | – | – | – | – | – | – | 2.15
Danio rerio embryo [24], 32.5 µM | – | – | – | – | – | – | – | – | – | – | – | – | – | 1.08
Danio rerio embryo [24], 33 µM | – | – | – | – | – | – | – | – | – | – | – | – | – | 1.78
Danio rerio embryo [24], 40 µM | – | – | – | – | – | – | – | – | – | – | – | – | – | 0.12
